These results are taken from patent US11173124B2, “Oral delivery of GLP-1 peptide analogs” (MEDIMMUNE LIMITED, priority 2017, dated 2021).

Values joined by “and” are separate entries in the source; they are usually repeats but may differ in a detail not shown here. Equal entries are not always repeated. Starred links: 1 amine or outer side, 2 acyl side, 3 side chain; linkers in the order of their positions; H or OH if unused. Non-standard residues stand in square brackets, D forms with d. Residues, ends and D or L forms follow the SMILES beside them. Groups on a side chain read outwards from the residue. *: point of attachment. γGlu = O=C(O)[C@H](CCC(=O)[*:2])N[*:1]; αMeF = C[C@](N)(Cc1ccccc1)C(=O)O; αMeK = C[C@](N)(CCCCN)C(=O)O; Lauroyl = CCCCCCCCCCCC(=O)*; αMeS = C[C@](N)(CO)C(=O)O; AEEA = NCCOCCOCC(=O)O; Aib = CC(C)(N)C(=O)O

Broadly, the half-life is the time in which the quantity being followed falls by half. The low end stands for rapid decline, the high end for slow decline. By AUC is commonly meant concentration integrated over time. For orientation: Cmax means the highest concentration seen after dosing.

Data set [1] is described as follows: Third rat ID infusion study, stabilized peptides vs semaglutide (Example 6). As to conditions: in vivo. The method, then:
The third rat ID infusion study was performed to compare bioavailability of stabilized peptides MEDI7219 (SEQ ID NO:2) and SEQ ID NO:6 with that of semaglutide, H-His-Aib-[…]AEEAc-AEEAc-γ-Glu-17-carboxyheptadecanoyl)-[…]OH (SEQ ID NO:11), (Novo Nordisk), an un-stabilized GLP-1 peptide analog, that only has Aib in its sequence for protection from circulating DPP-IV peptidases, (Table 7 and FIG. 2B).

A short description of data set [2]: Canine study, MEDI7219 enterically coated tablet, single and repeated dosing (Example 14). The class given is in vivo. On the procedure:
Tablet optimization was further established in the following canine study. The goals of this study were to evaluate the performance of the group 8 tablet formulation (Example 13, Table 20) as an enterically-coated (EC) tablet and to evaluate repeated dosing of this formulation. A Eudragit formula dissolving at pH 5.5 or above was applied to the tablets as enteric coating. Enterically-coated tablets were administered on day 0 followed by a 1 week wash-out. Following wash-out, animals received additional doses on days 7, 8, 9, 10 and 11.

Data set [3] can be described thus: Canine study, MEDI7219 enterically coated tablets, enhancer ratios, amounts and peptide doses (Example 15). In kind it is in vivo. On the procedure: The next canine study (Table 22) was executed to confirm the performance of the formulation from the previous study (Example 14, Group 2 formulation, Table 21) at 1, 3 and 10 mg MEDI7219 (SEQ ID NO:2) peptide doses. The second goal was to explore the influence of formulation compositions designed around the Group 2 formulation with varying ratios and amounts of permeation enhancers in an enterically-coated tablet form on bioavailability and pharmacokinetic variability. The following formulation variables were tested: sodium chenodeoxycholate:propyl gallate ratios of 1:1, 1:2, and 1:3; 150, 300 and 450 mg of permeation enhancers at a 1:2 ratio; and 1, 3 and 10 mg peptide doses. All tablets were enterically coated with Eudragit formula dissolving at pH 5.5 and above.

Data set [4] in a line: Canine study, Na CDC:PG ratios, PE amount and MEDI7219 dose in enterically coated tablets (Example 22, Table 29). In kind it is in vivo. As to conditions: Beagle dogs, oral enterically coated tablet.
Description: The following materials and methods were used for quantitative measurements of GLP-1 peptide analogs in plasma (e.g., rat or dog plasma) in the Examples below. These methods used a SCIEX 6600 TripleTOF mass spectrometer coupled with a Shimadzu ultra-high performance liquid chromatography (UHPLC). The specificity of the method was ensured by the retention time, the selected mass for Single-Reaction-Monitoring (SRM) mode, and the selected fragment mass in MS/MS (MS^2) mode.
The plasma extraction procedure used the following steps: • Samples, standards, and quality controls were incubated until they reached room temperature. They were then incubated at 60° C. for 2 minutes and cooled down to room temperature, vortexed, and spun down. • 70 μL of samples, standards, or quality controls were transferred into a 1 mL 96-well plate. • In each well, 420 uL of Precipitation Solution was added. The plate was sealed and shook for 10 minutes on a plate shaker at 600 rpm. • The plate was centrifuged at 18G, 2500 RFC, 20° C. for 10 minutes. • The plate was carefully removed, and the upper clear supernatant was extracted with a 200 uL multichannel pipette into a new 96-well protein lobind plate. The supernatant was extracted twice for each well, and the supernatants were combined. • The Plate was placed in TurboVap and the extracted supernatant was dried completely with heated (65° C.) Nitrogen gas at 60 Fahrenheit (Fh). • After the plate was completely dry, the plates were covered and incubated at room temperature for at least 30 minutes until the plate returned back to ambient temperature. • 150 μL of Reconstitution solution was added to each well. The plate was covered with a pierceable place seal and shaken at 600 rpm for 10 minutes. • The samples were submitted to the LC-MS/MS on the same day of Preparation
Quantification of the data obtained using the high resolution SCIEX 6600 instrument was then performed as follows: • For the quantification, extracted ion chromatograms (XIC) using 0.2 Da m/z extraction window centered on the accurate mass of each fragment ion were generated. Accurate mass was calculated from the structure of the compound. […] Concentrations of the target analyte in unknown samples were obtained by regression analysis using linear fits of peak areas vs. analyte concentration, weighted 1/(concentration). • The quality of the assay was controlled by the quality control samples. • Either Experiment 1 or Experiment 2 could be used for the quantification of the GLP-1 peptide analogs in high resolution mode.
A further data set has as its system Caco-2 cells. Put plainly: Caco-2 study, Permeability (%) of lipidated peptides (Example 3). As to conditions: 0.1 mg/mL peptide. The class given is in vitro ADME, human. The source says:
The Caco-2 cell line is a continuous cell line of heterogeneous human epithelial colorectal adenocarcinoma cells, which when cultured under specific conditions, become differentiated and polarized such that their phenotype, morphologically and functionally, resembles the enterocytes lining the small intestine. Caco-2 cells express tight junctions, microvilli, and a number of enzymes and transporters that are characteristic of such enterocytes. Caco-2 cells are most commonly used as a tight junction monolayer that provides a physical and biochemical barrier to the passage of drugs and thus serves as an in vitro model of the human small intestinal mucosa to predict the absorption of orally administered drugs. Caco-2 permeability assays were performed by Cyprotex US, LLC (MA, USA) to assess the efficacy of different permeation enhancers. Caco-2 cells were grown on Transwell filters until a transepithelial electric resistance of ˜1000 ohms/cm^2 was achieved. The cells were incubated for three hours with media containing test samples on the apical (top) side of the cell layer, and with blank media on the basolateral (lower) side of the cell layer. Media from the apical and basolateral sides was collected separately after three hours and evaluated for the amount of peptide present on each side. Table 2 gives the permeability coefficient (Papp) of the various test samples, which include the SEQ ID NO:3 GLP-1 peptide in the presence of different excipients.
A following Caco-2 study was performed to evaluate the permeability of different peptides in the presence of various permeation enhancers. Permeability (%) was calculated by dividing the cumulative amount of molecules transported with the original loading amount. Concentrations of peptides in starting sample and apical and basal solutions after incubation for pre-determined periods were analyzed by HPLC. Sodium chenodeoxycholate at 25 mg/mL effected the highest permeability of each tested peptide (Table 4).
In general terms: Caco-2 monolayers are a common model of the intestinal barrier.

In the case of `CCCCCCCCCCCC(=O)N[C@@H](CCC(=O)NCCOCCOCC(=O)NCCOCCOCC(=O)NCCCC[C@H](NC(=O)[C@H](C)NC(=O)[C@@H](NC(=O)[C@](C)(Cc1ccccc1)NC(=O)[C@H](CCC(=O)O)NC(=O)[C@](C)(CCCCN)NC(=O)[C@H](C)NC(=O)[C@H](C)NC(=O)[C@H](CCC(=O)O)NC(=O)CNC(=O)[C@H](CCC(=O)O)NC(=O)[C@H](CC(C)C)NC(=O)[C@H](CCCCNC(=O)COCCOCCNC(=O)COCCOCCNC(=O)CC[C@H](NC(=O)CCCCCCCCCCC)C(=O)O)NC(=O)[C@H](CO)NC(=O)[C@](C)(CO)NC(=O)[C@@H](NC(=O)[C@H](CC(=O)O)NC(=O)[C@H](CO)NC(=O)[C@@H](NC(=O)[C@](C)(Cc1ccccc1)NC(=O)[C@H](CO)NC(=O)CNC(=O)[C@H](CCC(=O)O)NC(=O)C(C)(C)NC(=O)[C@@H](N)Cc1c[nH]cn1)[C@@H](C)O)C(C)C)[C@@H](C)CC)C(=O)N[C@H](C(=O)N[C@H](C(=O)N[C@@H](CCC(=O)O)C(=O)NCC(=O)NCC(N)=O)C(C)C)C(C)C)C(=O)O` [MEDI7219, Free-H-[AIB]-EGS-[αMePhe]-TSDV-[αMeSer]-SK[(PEG2)2-γE-Lauroyl]-LEGEAA-[αMeLys]-E-[αMePhe]-IAK[(PEG2)2-γE-Lauroyl]-VVEGG-amide] (H-H[Aib]EGS[αMeF]TSDV[αMeS]SK([AEEA-AEEA-γGlu-Lauroyl])LEGEAA[αMeK]E[αMeF]IAK([AEEA-AEEA-γGlu-Lauroyl])VVEGG-NH2), the F entry was “significantly higher absolute bioavailability via ID route than semaglutide” in data set [1]; 100% in data set [1] (iv, 0.01 mg/kg); 4.6% in data set [2] (Enterically Coated Oral tablet (Eudragit, pH 5.5): 1 mg peptide, 100 mg Na CDC, 200 mg PG); 100% in data set [2] (Intravenous, 0.05 mg/kg, 0.5 mg/mL in 50 mM Tris, 150 mM mannitol, 0.02% Polysorbate 80, pH8.0); 100% in data set [3] (Intravenous, 0.05 mg/kg); 1.11% in data set [3] (Oral tablet, Group 10: 1 mg peptide, 100 mg Na CDC, 200 mg PG). Besides, the F worked out at 4.78% in data set [3] (Oral tablet, Group 11: 1 mg peptide, 100 mg Na CDC, 200 mg PG); 15.5% in data set [3] (Oral, Group 2 Enterically Coated tablet: 3 mg peptide, 100 mg Na CDC, 200 mg PG); 7.5% in data set [3] (Oral, Group 3 Enterically Coated tablet: 10 mg peptide, 100 mg Na CDC, 200 mg PG); 7.52% in data set [3] (Oral, Group 4 Enterically Coated tablet: 3 mg peptide, 75 mg Na CDC, 225 mg PG); 11.1% in data set [3] (Oral, Group 5 Enterically Coated tablet: 3 mg peptide, 50 mg Na CDC, 100 mg PG); 13.5% in data set [3] (Oral, Group 6 Enterically Coated tablet: 10 mg peptide, 50 mg Na CDC, 100 mg PG). Further, the F is 7.53% in data set [3] (Oral, Group 7 Enterically Coated tablet: 3 mg peptide, 150 mg Na CDC, 300 mg PG); 6.62% in data set [3] (Oral, Group 8 Enterically Coated tablet: 3 mg peptide, 150 mg Na CDC, 150 mg PG); > 4% and 4.2% in data set [3] (Oral, Group 9 Enterically Coated tablet: 1 mg peptide, 100 mg Na CDC, 200 mg PG); approximately 2% in data set [4] (150 mg Na CDC and no PG); approximately 6% in data set [4] (150 mg PE, 1:2 Na CDC:PG ratio); approximately 7% in data set [4] (150 mg PE, 2:1 Na CDC:PG ratio). Further, the F in data set [4] (6.5:1 Na CDC:PG ratio (130 mg Na CDC, 20 mg PG)) is listed as approximately 4%. Besides, the half-life in data set [1] was 10.4 h; in data set [1] (iv, 0.01 mg/kg) it was 17 h. In addition, the exposure (AUC) in data set [1] (iv, 0.01 mg/kg) amounted to 1590 ng·h/mL. In addition, the Cmax in data set [1] (iv, 0.01 mg/kg) is 264 ng/mL. Moreover, in data set [2] (enterically coated tablet 1 mg peptide, 100 mg Na CDC, 200 mg PG, day 0, then days 7, 8, 9, 10 and 11), the “bioavailability and PK variability on repeated dosing” value is given as “consistent bioavailability with reduced PK variability in subsequent dosing days”.

As for `CC[C@H](C)[C@H](NC(=O)C(C)(Cc1ccccc1)NC(=O)[C@H](CCC(=O)O)NC(=O)[C@H](CCCCNC(=O)COCCOCCNC(=O)COCCOCCNC(=O)CC[C@H](NC(=O)CCCCCCCCCCCCCCCCC(=O)O)C(=O)O)NC(=O)[C@H](C)NC(=O)[C@H](C)NC(=O)[C@H](CCC(=O)O)NC(=O)CNC(=O)[C@H](CCC(=O)O)NC(=O)[C@H](CC(C)C)NC(=O)C(C)(Cc1ccccc1)NC(=O)[C@H](CO)NC(=O)C(C)(CO)NC(=O)[C@@H](NC(=O)[C@H](CC(=O)O)NC(=O)[C@H](CO)NC(=O)[C@@H](NC(=O)C(C)(Cc1ccccc1)NC(=O)[C@H](CO)NC(=O)CNC(=O)[C@H](CCC(=O)O)NC(=O)C(C)(C)NC(=O)[C@@H](N)Cc1c[nH]cn1)[C@@H](C)O)C(C)C)C(=O)N[C@@H](C)C(=O)NC(C)(Cc1ccccc1)C(=O)N[C@H](C(=O)N[C@H](C(=O)NC(C)(CCCCN)C(=O)NCC(=O)NCC(N)=O)C(C)C)C(C)C` (stereo partly drawn) [SEQ ID NO: 3, Free-H-[AIB]-EGS-[αMePhe]-TSDV-[αMeSer]-S-[αMePhe]-LEGEAAK[(PEG2)2-γE-Stearate]-E-[αMePhe]-IA-[αMePhe]-VV-[αMeLys]-GG-amide], the “Permeability (%)” value with Caco-2 cells (5.0 mg/mL Chitosan) was 0%; in the data set with Caco-2 cells (5.0 mg/mL Octyl β-D-glucopyranoside), 0%; in the data set on Caco-2 cells (5.0 mg/mL Sodium Chenodeoxycholate) it was 1.7%; in the data set with Caco-2 cells (5.0 mg/mL Tri-Me-Chitosan), 0%; with Caco-2 cells (25 mg/mL Chitosan), 0%; in the data set on Caco-2 cells (25 mg/mL Octyl β-D-glucopyranoside), 2.0%. The “Permeability (%)” value with Caco-2 cells (25 mg/mL Sodium Chenodeoxycholate) is reported as 12.6%; in the data set with Caco-2 cells (25 mg/mL Tri-Me-Chitosan), 0%; in the data set on Caco-2 cells (no enhancer), 0%.
